Test results reported in patent publication US20180200233A1, “COMPOSITIONS FOR PREVENTING CANCERS ASSOCIATED WITH HUMAN PAPILLOMA VIRUSES” (Loma Linda University, priority 2015, published 2018).

Assays:
[1] = test system: caspase 3/7 activity in SiHa cells; assay: Caspase 3/7 activity assay in SiHa cells; type: cell-based, human; conditions: 100 μM myricetin or 50 μM spinacine 4 h, TRAIL 100 ng/ml + cycloheximide, 0-6 h
Procedure: FIGS. 4A-C are graphs showing that myricetin and spinacine (5) increased caspase 3/7 activity in SiHa cells following treatment with TRAIL and chemotherapy drugs. SiHa cells (2×10^4 cells per well) were seeded into a 96-well plate and allowed to incubate overnight, then pre-treated with 100 μM of myricetin or 50 μM of spinacine for 4 h. (FIG. 4A) TRAIL (100 ng/ml), along with cycloheximide (5 μg/ml), (FIG. 4B) cisplatin (50 μM), or (FIG. 4C) doxorubicin (2 μM) were added respectively. Caspase 3/7 activity was measured after 0, 1.5, 3, and 6 hours using the […] assay. Activity at 0 h of treatment was set at 100% for each group. […]
Activation of caspase 3/7 is an essential marker for both extrinsic and intrinsic apoptosis, and can be used to determine whether cell death occurs through the apoptotic pathway. […] To test this, caspase 3/7 activity was measured in SiHa cells following TRAIL, cisplatin and doxorubicin treatment in the presence or absence of myricetin or spinacine.
Cells were plated into 96-well plates at a density of 2×10^4 cells per well and incubated overnight. […] Caspase 3/7 activity was measured using the […] for caspase 3/7 activity (Promega, Fitchburg, Wis., USA) following the manufacturer's instructions. […] The resulting difference was expressed as a percentage of the caspase activity of the untreated cells.

SiHa cells = assay: in vitro; type: cell-based, human
Procedure: FIGS. 3A-E are graphs providing data regarding resistance of HPV^+ SiHa cells to TRAIL-, cisplatin- and […] apoptosis, in the presence and absence of small molecules as disclosed herein. (FIG. 3A) HPV^+ SiHa cells are resistant to TRAIL-induced apoptosis as compared to the human osteosarcoma cell line U2OS. Cells (2×10^4 cells per well) were seeded into a 96-well plate, allowed to incubate overnight, and then treated with indicated concentration of TRAIL in the presence of cycloheximide (5 μg/ml). The viability of cells was measured after overnight incubation using the MTT assay; the viability of cells untreated with TRAIL was set at 100% for each group. (FIG. 3B) The indicated concentrations of three small molecules were added to SiHa cells, and an MTT assay was preformed after overnight incubation. The viability of cells untreated with small molecules was set as 100%. (FIG. 3C) The indicated concentrations of myricetin or spinacine were added 4 h prior to TRAIL (100 ng/ml) in the presence of cycloheximide (5 μg/ml) and incubated at 37° C. overnight. The viability of cells untreated with small molecules was set at 100%. (FIG. 3D and FIG. 3E) SiHa cells (2×10^4 cells per well) were seeded into a 96-well plate and allowed to incubate overnight. 100 μM of myricetin and 50 μM of spinacine were added 4 h prior to either (FIG. 3D) doxorubicin or (FIG. 3E) cisplatin. Cell viability was measured after overnight incubation using the MTT assay, and the viability of cells untreated with either myricetin or spinacine was set at 100%. Experiments were performed in triplicate, and error bars indicate the standard deviation.
The molecules were then tested to determine whether those that block E6/caspase 8 binding in vitro could also act in the context of a cell. SiHa cells are an HPV^+ cell line, derived from a cervical carcinoma, which serves as a commonly used model for HPV-associated malignancies. To determine whether HPV^+ SiHa cells are resistant to TRAIL-induced apoptosis, SiHa cells were treated with TRAIL and cell viability was assessed. TRAIL-sensitive, HPV^− U2OS cells served as a positive control. […] Myricetin and/or spinacine were tested to determine if they could sensitize these HPV^+ cells to TRAIL-induced apoptosis. […] Table 2 lists and compares the concentrations of the three tested compounds required to induce death in 50% of SiHa cells in the presence or absence of TRAIL.
The extracellular domain of human TRAIL was cloned into a pTriEx expression plasmid containing N-terminal Hisx6 tag. His-TRAIL was expressed in the E. coli BL-21 pLys strain and purified as previously described. Doxorubicin and cisplatin were purchased from Sigma. His-TRAIL, doxorubicin, and cisplatin were diluted in PBS to the desired concentration before using. To measure cell survival following treatment with TRAIL, cisplatin and doxorubicin, SiHa (2×10^4/well), C33A (1×10^4/well), and HNSCC cells (2×10^4/well) were seeded into 96-well plates and allowed to adhere overnight. Small molecules at the desired concentration were added and incubated at 37° C. for 4 h. As indicated, TRAIL, cisplatin or doxorubicin was then added. […] All experiments were repeated at least three times (three biological replicates, carried out on different days), with each experimental group measured in triplicate within each of these individual experiments. […]

Question: Which “caspase 3/7 activity when combined with TRAIL (in words)” value [1] does the source give for `O=c1c(O)c(-c2cc(O)c(O)c(O)c2)oc2cc(O)cc(O)c12` [Myricetin, reference compound] here?
Answer: increased significantly

Question: And the “toxicity to SiHa cells in the absence of TRAIL (in words)” value (SiHa cells)?
Answer: low toxicity

Question: With `O=C(O)C1Cc2[nH]cnc2CN1` (stereo not shown) [Compound 5, 4,5,6,7-Tetrahydro-1H-imidazo(4,5-c)pyridine-6-carboxylic acid] as the molecule, how does the “caspase 3/7 activity when combined with TRAIL (in words)” value [1] read?
Answer: increased significantly

Question: What about the “toxicity to SiHa cells in the absence of TRAIL (in words)” value (SiHa cells) of the same molecule?
Answer: low toxicity
